Test results as given in patent publication US6670446B1, “N1 modified glycopeptides” (Eli Lilly and Company, priority 1998, dated 2003).

Legend:
Assay type in all cases: cell-based
[1] = system: Resistant Enterococcus faecium and faecalis; test: MIC, standard broth micro-dilution assay, Resistant; conditions: geometric mean of 4-6 isolates
Procedure: (§1) The antibacterial efficacy of the present compounds is illustrated by Table III. The minimal inhibitory concentrations (MICs) were determined using a standard broth micro-dilution assay.

[2] = system: Sensitive Enterococcus faecium and faecalis; test: MIC, standard broth micro-dilution assay, Sensitive; conditions: geometric mean of 4-6 isolates
Procedure: as §1

[3] = system: Staphylococcus aureus 446; test: MIC, standard broth micro-dilution assay, SA 446
Procedure: as §1

[4] = system: Staphylococcus aureus 489; test: MIC, standard broth micro-dilution assay, SA 489
Procedure: as §1

[5] = system: Staphylococcus aureus 447; test: MIC, standard broth micro-dilution assay, SA 447
Procedure: as §1

[6] = system: Staphylococcus aureus X400; test: MIC, standard broth micro-dilution assay, SA X400
Procedure: as §1

[7] = system: Staphylococcus aureus X778; test: MIC, standard broth micro-dilution assay, SA X778
Procedure: as §1

[8] = system: Staphylococcus aureus 491; test: MIC, standard broth micro-dilution assay, SA 491
Procedure: as §1

[9] = system: Staphylococcus aureus S13E
Procedure: as §1

[10] = system: Staphylococcus aureus SA1199; test: MIC, standard broth micro-dilution assay, SA 1199
Procedure: as §1

[11] = system: Staphylococcus aureus SA1199A; test: MIC, standard broth micro-dilution assay, SA 1199A
Procedure: as §1

[12] = system: Staphylococcus haemolyticus 105; test: MIC, standard broth micro-dilution assay, SH 105
Procedure: as §1

[13] = system: Staphylococcus haemolyticus 415; test: MIC, standard broth micro-dilution assay, SH 415
Procedure: as §1

[14] = system: Staphylococcus epidermidis 270; test: MIC, standard broth micro-dilution assay, SE 270
Procedure: as §1

Enterococcus faecium 180 = test: MIC, standard broth micro-dilution assay, EF 180
Procedure: as §1

[15] = system: Enterococcus faecium 180-1; test: MIC, standard broth micro-dilution assay, EF 180-1
Procedure: as §1

[16] = system: Enterococcus faecalis 2041; test: MIC, standard broth micro-dilution assay, EF 2041
Procedure: as §1

[17] = system: Enterococcus faecalis 276; test: MIC, standard broth micro-dilution assay, EF 276
Procedure: as §1

[18] = system: Enterococcus gallinarum 245; test: MIC, standard broth micro-dilution assay, EG 245
Procedure: as §1

[19] = system: Haemophilus influenzae RD; test: MIC, standard broth micro-dilution assay, HFRD
Procedure: as §1

Escherichia coli EC14 = test: MIC, standard broth micro-dilution assay, EC 14
Procedure: as §1

Structure (SMILES)	minimal inhibitory concentration (MIC), Resistant [1]	minimal inhibitory concentration (MIC), Sensitive [2]	minimal inhibitory concentration (MIC), SA 446 [3]	minimal inhibitory concentration (MIC), SA 489 [4]	minimal inhibitory concentration (MIC), SA 447 [5]	minimal inhibitory concentration (MIC), SA X400 [6]	minimal inhibitory concentration (MIC), SA X778 [7]	minimal inhibitory concentration (MIC), SA 491 [8]	minimal inhibitory concentration (MIC), SA S13E [9]	minimal inhibitory concentration (MIC), SA 1199 [10]	minimal inhibitory concentration (MIC), SA 1199A [11]	minimal inhibitory concentration (MIC), SH 105 [12]	minimal inhibitory concentration (MIC), SH 415 [13]	minimal inhibitory concentration (MIC), SE 270 [14]	minimal inhibitory concentration (MIC), EF 180 (Enterococcus faecium 180)	minimal inhibitory concentration (MIC), EF 180-1 [15]	minimal inhibitory concentration (MIC), EF 2041 [16]	minimal inhibitory concentration (MIC), EF 276 [17]	minimal inhibitory concentration (MIC), EG 245 [18]	minimal inhibitory concentration (MIC), HFRD [19]	other results
CC1OC(OC2c3ccc(c(Cl)c3)Oc3cc4cc(c3OC3OC(CO)C(O)C(O)C3OC3CC(C)(NCc5ccc(-c6ccccc6)cc5)C(O)C(C)O3)Oc3ccc(cc3Cl)C(O)C(NC(=O)C(CCCCNC(=O)OC(C)(C)C)NC(=O)OC(C)(C)C)C(=O)NC(CC(N)=O)C(=O)NC4C(=O)NC3C(=O)NC2C(=O)NC(C(=O)O)c2cc(O)cc(O)c2-c2cc3ccc2O)CC(C)(N)C1O [Example 19, N^1-(N^1N′-DIBOC-D-lysine) derivative of N^DISACC-(p-phenylbenzyl)desleucylA82846B]	64	2.6	2	1	2	2	2	1	2	2	no growth	4	4	2	8	1	0.5	2	2	>64	minimal inhibitory concentration (MIC), EC 14 (Escherichia coli EC14): >64
CC1OC(OC2C(Oc3c4cc5cc3Oc3ccc(cc3Cl)[C@@H](O)[C@@H](NC(=O)[C@@H](Cc3ccc(Cl)cc3)NC(=O)OC(C)(C)C)C(=O)N[C@@H](CC(N)=O)C(=O)N[C@H]5C(=O)N[C@H]3C(=O)NC(C(=O)N[C@H](C(=O)O)c5cc(O)cc(O)c5-c5cc3ccc5O)[C@H](OC3CC(C)(N)C(O)C(C)O3)c3ccc(c(Cl)c3)O4)OC(CO)C(O)C2O)CC(C)(N)C1O (stereo partly drawn) [Example 20, N^1-[N-BOC-D-3-(p-chlorophenyl)alanine] derivative of desleucylA82846B]	>128	2	0.5	≦.06	0.25	≦.06	0.25	≦.06	0.125	0.125	no growth	8	16	0.125	16	0.25	≦.06	0.125	0.5	8	minimal inhibitory concentration (MIC), EC 14 (Escherichia coli EC14): >64
CC1OC(OC2c3ccc(c(Cl)c3)Oc3cc4cc(c3OC3OC(CO)C(O)C(O)C3OC3CC(C)(NCc5ccc(-c6ccccc6)cc5)C(O)C(C)O3)Oc3ccc(cc3Cl)C(O)C(NC(=O)C(Cc3ccc(Cl)cc3)NC(=O)OC(C)(C)C)C(=O)NC(CC(N)=O)C(=O)NC4C(=O)NC3C(=O)NC2C(=O)NC(C(=O)O)c2cc(O)cc(O)c2-c2cc3ccc2O)CC(C)(N)C1O [Example 21, N^1-[N-BOC-D-3-(p-chlorophenyl)alanine] derivative of N^DISACC-(p-phenylbenzyl)desleucylA82846B]	11	1.5	0.5	0.25	0.5	0.5	0.5	0.5	0.5	0.5	no growth	2	2	0.5	1	0.5	0.5	1	1	2	minimal inhibitory concentration (MIC), EC 14 (Escherichia coli EC14): >64
CC1OC(OC2c3ccc(c(Cl)c3)Oc3cc4cc(c3OC3OC(CO)C(O)C(O)C3OC3CC(C)(NCc5ccc(-c6ccccc6)cc5)C(O)C(C)O3)Oc3ccc(cc3Cl)C(O)C(NC(=O)C(N)Cc3ccc(Cl)cc3)C(=O)NC(CC(N)=O)C(=O)NC4C(=O)NC3C(=O)NC2C(=O)NC(C(=O)O)c2cc(O)cc(O)c2-c2cc3ccc2O)CC(C)(N)C1O [Example 22, N^1-[D-3-(p-chlorophenyl)alanine] derivative of N^DISACC-(p-phenylbenzyl)desleucylA82846B]	6.7	0.66	1	1	1	0.5	1	0.5	2	2	0.25	2	4	0.25	2	≦.06	1	1	0.25	>64	minimal inhibitory concentration (MIC), EC 14 (Escherichia coli EC14): >64
CC1OC(OC2c3ccc(c(Cl)c3)Oc3cc4cc(c3OC3OC(CO)C(O)C(O)C3OC3CC(C)(NCc5ccc(-c6ccccc6)cc5)C(O)C(C)O3)Oc3ccc(cc3Cl)C(O)C(NC(=O)C(N)CCCCN)C(=O)NC(CC(N)=O)C(=O)NC4C(=O)NC3C(=O)NC2C(=O)NC(C(=O)O)c2cc(O)cc(O)c2-c2cc3ccc2O)CC(C)(N)C1O [Example 23, N^1-D-lysine derivative of N^DISACC-(p-phenylbenzyl)desleucylA82846B]	2	0.29	1	0.5	1	2	2	0.5	2	0.5	0.25	1	1	0.125	0.5	≦.06	0.5	0.25	0.125	>64	minimal inhibitory concentration (MIC), EC 14 (Escherichia coli EC14): >64
CC1OC(OC2C(Oc3c4cc5cc3Oc3ccc(cc3Cl)[C@@H](O)[C@@H](NC(=O)[C@H]3CCCN3C(=O)OC(C)(C)C)C(=O)N[C@@H](CC(N)=O)C(=O)N[C@H]5C(=O)N[C@H]3C(=O)NC(C(=O)N[C@H](C(=O)O)c5cc(O)cc(O)c5-c5cc3ccc5O)[C@H](OC3CC(C)(N)C(O)C(C)O3)c3ccc(c(Cl)c3)O4)OC(CO)C(O)C2O)CC(C)(N)C1O (stereo partly drawn) [Example 24, N^1-(N-BOC-D-proline) derivative of desleucylA82846B]	>128	4	4	2	4	2	1	1	2	2	1	16	32	2	>64	1	1	1	8	>64	minimal inhibitory concentration (MIC), EC 14 (Escherichia coli EC14): >64
